Measured values published in patent publication US7390910B2, “Compounds for treating tumors” (priority 2003, dated 2008).
Marks after values point to notes of the source that are not given here. *1 amine or outer side, *2 acyl side, *3 side chain or, on linkers, in order; H or OH if unused. Where a SMILES comes first, the peptide text is derived from it. [ ]: non-standard residue; d: D form. The star is where a group is joined. NMePhe(3-Me,β,β-Me2) = CN[C@H](C(=O)O)C(C)(C)c1cccc(C)c1; X1 = C/C(=C\[C@H](C(C)C)N(C)[*:1])C(=O)[*:2]; Tle = CC(C)(C)[C@H](N)C(=O)O; NHBn = c1ccc(CN*)cc1

What was measured:
[1] = system: KB cells; assay: cells; format: cell-based; details: 3 days, SRB
Method: (§1) Cell Survival Assay: Standard Pharmacological Test Procedure. […] Compounds are incubated with cells for 3 days.

[2] = system: KB85; assay: cells; format: cell-based; details: for IC50: 3 days, SRB
Method: as §1

[3] = system: KBV1; assay: cells; format: cell-based; details: for inhibition at 3 µM: KB-V1, 3000 nM; for IC50: 3 days, SRB
Method: as §1

[4] = system: bovine microtubule-associated protein (MAP)-rich tubulin; format: biochemical
Method: Tubulin Polymerization Assays. For in vitro tubulin polymerization assays, bovine microtubule-associated protein (MAP)-rich tubulin, PEM buffer [80 mM Na-PIPES (pH 6.9), 1 mM MgCl2, and 1 mM EGTA], and GTP are purchased from Cytoskeleton (Denver, Colo.). MAP-rich tubulin (final concentration 1.5 mg/ml) is dissolved in cold PEM buffer containing 1 mM GTP (GPEM) and centrifuged at 12,000×g for 10 min at 4° C. The tubulin solution (100 μl/well) is added rapidly to wells of a low-volume, 96-well plate already containing duplicate aliquots (10 μl) of test compounds in GPEM. […] Control wells contained the same final concentration of DMSO (0.3%). After initiation of the reaction, absorbance at 340 nm is measured every minute for 60 min at 24° C. using a SpectraMax Plus plate reader (Molecular Devices, Sunnyvale, Calif.).

Molecule | IC50 ([1]; Homo sapiens, KB, 72 h) [nM] | IC50 ([2]; 72 h) [nM] | inhibition at 3 µM ([3]; Homo sapiens) [%] | Tubulin Polym. % inhibition at 0.3 uM [4] | IC50 ([3]; Homo sapiens, KB-V1, 72 h) [nM] | IC50 [1] [nM] | IC50 [2] [nM] | IC50 [3] [nM] | Tubulin Polym. % inhibition at 0.5 uM [4] | inhibition at 3 µM ([2]; 3000 nM) [%]
CN[C@H](C(=O)N[C@H](C(=O)N(C)[C@H](/C=C(\C)C(=O)N1CCN(CCCN(C)C)CC1)C(C)C)C(C)(C)C)C(C)(C)c1ccccc1 [Example 38, N,β,β-trimethyl-L-phenylalanyl-N^1-((1S,2E)-4-{4-[3-(dimethylamino)propyl]piperazin-1-yl}-1-isopropyl-3-methyl-4-oxobut-2-enyl)-N^1,3-dimethyl-L-valinamide] | 20 | 529 | 0 | 75% | – | – | – | – | – | –
CN[C@H](C(=O)N[C@H](C(=O)N(C)[C@H](/C=C(\C)C(=O)c1nccs1)C(C)C)C(C)(C)C)C(C)(C)c1ccccc1 [Example 73, N,β,β-trimethyl-L-phenylalanyl-N^1-[(1S,2E)-1-isopropyl-3-methyl-4-oxo-4-(1,3-thiazol-2-yl)but-2-enyl]-N^1,3-dimethyl-L-valinamide] | 582 | 565 | – | 33% | 1790 | – | – | – | – | –
CN[C@H](C(=O)N[C@H](C(=O)N(C)[C@H](/C=C(\C)C(=O)N(C)OC)C(C)C)C(C)(C)C)C(C)(C)c1ccccc1 [Example 52, N,β,β-trimethyl-L-phenylalanyl-N^1-{(1S,2E)-1-isopropyl-4-[methoxy(methyl)-amino]-3-methyl-4-oxobut-2-enyl}-N^1,3-dimethyl-L-valinamide] | 11 | 47 | – | 86% | 392 | – | – | – | – | –
CN[C@H](C(=O)N[C@H](C(=O)N(C)[C@H](/C=C(\C)[C@@H](O)c1ccccc1)C(C)C)C(C)(C)C)C(C)(C)c1ccccc1 [Example 75, N,β,β-trimethyl-L-phenylalanyl-N-1-[(1S,2E,4R)-4-hydroxy-1-isopropyl-3-methyl-4-phenylbut-2-enyl}-N-1,3-dimethyl-L-valinamide] | – | – | – | – | – | 124 | 186 | 632 | 83*** % | –
CN[C@H](C(=O)N[C@H](C(=O)N(C)[C@H](/C=C(\C)C(=O)N1CCC[C@H]1C(=O)O)C(C)C)C(C)(C)C)C(C)(C)C1CCCCC1 [Example 46, 3-cyclohexyl-N-methyl-L-valyl-N^1-{(1S,2E)-4-[(2S)-2-carboxypyrrolidin-1-yl]-1-isopropyl-3-methyl-4-oxobut-2-enyl}-N^1,3-dimethyl-L-valinamide] | 450 | 1720 | 1 | 99% | – | – | – | – | – | –
CN[C@H](C(=O)N[C@H](C(=O)N(C)[C@H](/C=C(\C)[C@H](O)c1ccccc1)C(C)C)C(C)(C)C)C(C)(C)c1ccccc1 [Example 76, N,β,β-trimethyl-L-phenylalanyl-N-1-[(1S,2E,4S)-4-hydroxy-1-isopropyl-3-methyl-4-phenylbut-2-enyl}-N-1,3-dimethyl-L-valinamide] | – | – | – | – | – | 16 | 22 | 190 | 63*** % | –
CN[C@H](C(=O)N[C@H](C(=O)N(C)[C@H](/C=C(\C)C(O)c1nccs1)C(C)C)C(C)(C)C)C(C)(C)c1ccccc1 (stereo partly drawn) [Example 77, N,β,β-trimethyl-L-phenylalanyl-N-1-[(1S,2E)-4-hydroxy-1-isopropyl-3-methyl-4-(1,3-thiazol-2-yl)but-2-enyl]-N-1-,3-dimethyl-L-valinamide] | – | – | – | 97% | – | 13 | 19 | 364 | – | –
CN[C@H](C(=O)N[C@H](C(=O)N(C)[C@H](/C=C(\C)C(=O)N1CCC[C@H]1C(=O)O)C(C)C)C(C)(C)C)C(C)(C)c1cccc(Cl)c1 [Example 24, 3-Chloro-N,β,β-trimethyl-L-phenylalanyl-N^1-{(1S,2E)-4-[(2S)-2-carboxypyrrolidin-1yl]-1-isopropyl-3-methyl-4-oxobut-2-enyl}-N^1,3-dimethyl-L-valinamide] | 62 | 180 | 17 | 94% | – | – | – | – | – | –
CN[C@H](C(=O)N[C@H](C(=O)N(C)[C@H](/C=C(\C)C(=O)N1CCC[C@H]1C(=O)OC)C(C)C)C(C)(C)C)C(C)(C)c1cccc(C)c1 [Example 21, N,β,β,3-Tetramethyl-L-phenylalanyl-N^1-{(1S,2E)-4-[(2S)-2-(methoxycarbonyl)pyrrolidin-1-yl]-1-isopropyl-3-methyl-4-oxobut-2-enyl}-N^1,3-dimethyl-L-valinamide] | 1.6 | 6.2 | – | 89% | 275 | – | – | – | – | –
CN[C@@H](C(=O)N[C@H](C(=O)N(C)[C@H](/C=C(\C)C(=O)N1CCN(Cc2ccccc2)CC1)C(C)C)C(C)(C)C)C(C)(C)c1ccc(C)c(C)c1 [Example 13, N,β,β,3,4-Pentamethyl-D-phenylalanyl-N^1-[(1S,2E)-4-(4-benzylpiperazin-1-yl)-1-isopropyl-3-methyl-4-oxobut-2-enyl]-N^1,3-dimethyl-L-valinamide] | 172 | 352 | – | 11% | 1770 | – | – | – | – | –
CN[C@H](C(=O)N[C@H](C(=O)N(C)[C@H](/C=C(\C)C(=O)O)C(C)C)C(C)(C)C)C1(C)CCCc2ccccc21 (stereo partly drawn) [Example 59, (2E,4S)-2,5-dimethyl-4-(methyl{3-methyl-N-[(2S)-2-(methylamino)-2-(1-methyl-1,2,3,4-tetrahydro-1-naphthalenyl)ethanoyl]-L-valyl}amino)-2-hexenoic acid] | 5.5 | 6.6 | – | 93% | 76 | – | – | – | – | –
N,β,β-trimethyl-L-phenylalanyl-N^1-[(1S,2E)-1-isopropyl-4-((2S)-2-{(1R,2R)-1-methoxy-2-methyl-3-[(4R,5S)-4-methyl-2-oxo-5-phenyl-1,3-oxazolidin-3-yl]-3-oxopropyl}pyrrolidin-1-yl)-3-methyl-4-oxovalinamide [Example 32] | – | – | – | 99(2) % | – | 12 | 45 | 636 | – | –
CN[C@H](C(=O)N[C@H](C(=O)N(C)[C@H](/C=C(\C)C(=O)N1CCOCC1)C(C)C)C(C)(C)C)C(C)(C)c1cc(C)cc(C)c1 [Example 3, N,β,β,3,5-Pentamethyl-L-phenylalanyl-N^1-[(1S,2E)-1-isopropyl-3-methyl-4-morpholin-4-yl-4-oxobut-2-enyl]-N^1,3-dimethyl-L-valinamide] | 70 | 176 | – | 51% | 1760 | – | – | – | – | –
CN[C@H](C(=O)N[C@H](C(=O)N(C)[C@H](/C=C(\C)C(=O)N1CCC[C@H]1C(=O)O)C(C)C)C(C)(C)C)C(C)(C)c1cccc(C)c1 [Example 22, N,β,β,3-Tetramethyl-L-phenylalanyl-N^1-{(1S,2E)-4-[(2S)-2-carboxypyrrolidin-1-yl]-1-isopropyl-3-methyl-4-oxobut-2-enyl}-N^1,3-dimethyl-L-valinamide] | 70 | 599 | 12 | 95% | – | – | – | – | – | –
CN[C@H](C(=O)N[C@H](C(=O)N(C)[C@H](/C=C(\C)C(=O)N1CCC[C@@H]1C(=O)N1CCC[C@@H]1C(=O)NCc1ccccc1)C(C)C)C(C)(C)C)C(C)(C)c1cccc(C)c1.O=C(O)C(F)(F)F [Example 9, 1-{(2E,4S)-2,5-Dimethyl-4-[methyl(N,β,β,3-tetramethyl-L-phenylalanyl-3-methyl-L-valyl)amino]hex-2-enoyl}-D-prolyl-N-benzyl-D-prolinamide trifluoroacetic acid salt] (H-[NMePhe(3-Me,β,β-Me2)][Tle][X1][dP][dP]-NHBn) | 1.4 | 23 | 21 | 56% | – | – | – | – | – | –
C/C(=C\[C@H](C(C)C)N(C)C(=O)[C@@H](NC(=O)[C@@H]1CCCN1C)C(C)(C)C)C(=O)O [Example 62, 1-methyl-L-prolyl-N^1-[(1S,2E)-3-carboxy-1-isopropylbut-2-enyl]-N^1,3-dimethyl-L-valinamide] | 2950 | – | 10 | 65(2) % | – | – | – | – | – | 26
CN[C@H](C(=O)N[C@H](C(=O)N(C)[C@H](/C=C(\C)C(=O)N1CCC[C@H]1[C@H](OC)[C@@H](C)C(=O)NCCc1ccccc1)C(C)C)C(C)(C)C)C(C)(C)c1ccccc1 [Example 31, N-methyl-3-phenyl-L-valyl-N^1— [(1S,2E)-1-isopropyl-4-((2S)-2-{(1R,2R)-1-methoxy-2-methyl-3-oxo-[(2-phenethyl)amino]propyl}pyrrolidin-1-yl)-3-methyl-4-oxobut-2-enyl]-N^1,3-dimethyl-L-valinamide] | – | – | – | 69% | – | 0.9 | 5.1 | 191 | – | –
CN[C@H](C(=O)N[C@H](C(=O)N(C)[C@H](/C=C(\C)C(=O)N1CCC[C@H]1C(=O)O)C(C)C)C(C)(C)C)C(C)(C)c1cc(C)cc(C)c1 [Example 20, N,β,β,3,5-Pentamethyl-L-phenylalanyl-N^1-{(1S,2E)-4-[(2S)-2-carboxypyrrolidin-1-yl]-1-isopropyl-3-methyl-4-oxobut-2-enyl}-N^1,3-dimethyl-L-valinamide] | 82 | 664 | 3 | 80% | – | – | – | – | – | –
